Among the data in US8470851B2, “Substituted acetylenic imidazo[1,2-A]pyridine compounds as kinase inhibitors” (ARIAD Pharmaceuticals, Inc., priority 2005, dated 2013) are GI50 values, retold here.

This assay addresses T1, BaF3 cells transfected with the Bcr-Abl T315I mutant (Homo sapiens, UniProt P00519, T315I, cells depend on it).
T1 construct: fused on or other part: P11274 (Breakpoint cluster region protein)
The assay can be described thus: Ba/F3 cell proliferation assay, Bcr-Abl T315I (CellTiter 96 AQueous One).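 Further: murine pro-B Ba/F3 line, tetrazolium turned into formazan and read by absorbance, compound dilution series, values as percent of DMSO-treated control, IC50 from fitted curves.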 In kind it is cell-based, murine. As to conditions: Ba/F3 cells expressing Bcr-Abl T315I, 3 days incubation; read-out: T315l cell proliferation.

From the text: More specifically, the cell proliferation assay we currently perform is using CellTiter 96 AQueous One Solution Cell Proliferation assay kit (Promaga, Cat#G3581). This assay is a colorimetric method for determining the number of alive cells in proliferation or cytotoxicity assays. The assay utilizing terazolium salts detect cell proliferation by detecting the product of the enzymatic conversion of the tetrazolium salts into blue formazan derivatives, which can be measured by the absorbance at 490 nm in a plate reader, Wallac Victor^2V (Perkin Elmer).
An example of cell-based assay is shown as below. The cell lines used in the assay are Ba/F3, a murine pro-B cell line, which have been stably transfected with full-length wild-type Bcr-Abl or Bcr-Abl with various kinase domain point mutations (including T351I, Y253F, E255K, H396P, M351T etc) constructs. Parental Ba/F3 cell line is used as control. […] Parental Ba/F3 cells were culture in the same medium supplemented with 10 ng/ml IL-3.
The compounds are first dissolved and diluted in DMSO by preparation of 4-fold dilution; next equal volumes of compounds with DMSO are transferred to medium and then transferred to cell plates. The final compound concentrations start from 10 μM to 6 nM. DMSO at same percentage is used as control. […] Basically, the tetrazolium salts are added to the incubated cultured cells to allow enzymatic conversion to the detectable product by active cells. Cells are processed, and the optical density of the cells is determined to measure the amount of formazan derivatives. Mean+/−SD are generated from duplicated wells and reported as the percentage absorbance of control. IC50s are calculated in best-fit curves using Micorsoft Excel-fit software.

Take `Cc1ccc(C(=O)Nc2ccc(CN3CCNCC3)c(C(F)(F)F)c2)cc1C#Cc1cnc2cnccn12`: the GI50 is under 1000 nM. For `Cc1ccc(C(=O)Nc2cc(C(F)(F)F)ccn2)cc1C#Cc1cnc2c(NC(N)=O)cccn12` the value was under 1000 nM. For `CN1CCN(Cc2ccc(NC(=O)c3ccc(F)c(C#Cc4cnc5cnccn45)c3)cc2C(F)(F)F)CC1` the value was under 1000 nM; for `CCN1CCN(Cc2ccc(NC(=O)c3ccc(C)c(C#Cc4cnc5cnccn45)c3)cc2C(F)(F)F)CC1`, under 1000 nM; for `Cc1ccc(C(=O)Nc2ccc(CN3CCN(C)CC3)c(C(F)(F)F)c2)cc1C#Cc1cnn2c(N)ncnc12`, under 1000 nM. With `Cc1ccc(C(=O)Nc2ccc(CN3CCN(C(C)C)CC3)c(C(F)(F)F)c2)cc1C#Cc1cnc2cnccn12`, the GI50 is under 1000 nM. Consider `CNC(=O)Nc1cccn2c(C#Cc3cc(C(=O)Nc4cc(C(F)(F)F)ccn4)ccc3C)cnc12`, for which the GI50 was under 1000 nM. Take `Cc1ccc(C(=O)Nc2cc(C(C)(C)C)on2)cc1C#Cc1cnc2c(NC(N)=O)cccn12`: the GI50 was under 1000 nM.

As for `Cc1ccc(C(=O)Nc2cc(-n3ccnc3)cc(C(F)(F)F)c2)cc1C#Cc1cnc2c(NC(N)=O)cccn12`, the GI50 is under 1000 nM. For `CN1CCN(Cc2ccc(NC(=O)c3ccc(Cl)c(C#Cc4cnc5ccccn45)c3)cc2C(F)(F)F)CC1` the value was under 1000 nM; for `Cc1ccc(C(=O)Nc2cc(C(F)(F)F)ccn2)cc1C#Cc1cnc2c(NC(=O)N(C)C)cccn12`, under 1000 nM; for `Cc1ccc(C(=O)Nc2cc(C(F)(F)F)ccn2)cc1C#Cc1cnc2c(NC(=O)C3CC3)cccn12`, under 1000 nM. With `CN1CCN(Cc2ccc(NC(=O)c3ccc(F)c(C#Cc4cnc5ccccn45)c3)cc2C(F)(F)F)CC1` the figure was under 1000 nM; with `COC(=O)Nc1cccn2c(C#Cc3cc(C(=O)Nc4cc(C(F)(F)F)ccn4)ccc3C)cnc12`, under 1000 nM; with `Cc1ccc(C(=O)Nc2cc(-n3ccnc3)cc(C(F)(F)F)c2)cc1C#Cc1cnc2c(NC(=O)OC(C)(C)C)cccn12`, under 1000 nM. With `Cc1ccc(C(=O)Nc2ccc(OC3CCN(C)CC3)c(C(F)(F)F)c2)cc1C#Cc1cnc2cnccn12` the figure was under 1000 nM; with `CN1CCN(Cc2ccc(NC(=O)c3cccc(C#Cc4cnc5ccccn45)c3)cc2C(F)(F)F)CC1`, under 1000 nM; with `Cc1ccc(C(=O)Nc2cc(Cn3ccnc3)cc(C(F)(F)F)c2)cc1C#Cc1cnc2ccccn12`, under 1000 nM. For `Cc1ccc(C(=O)Nc2cc(-n3ccnc3)cc(C(F)(F)F)c2)cc1C#Cc1cnn2cccnc12`, the GI50 was under 1000 nM.

Take `Cc1ccc(C(=O)Nc2cc(Cn3ccnc3)cc(C(F)(F)F)c2)cc1C#Cc1cnc2cnccn12`: the GI50 was under 1000 nM. For `CC(=O)Nc1cccn2c(C#Cc3cc(C(=O)Nc4cc(C(F)(F)F)ccn4)ccc3C)cnc12` the value was under 1000 nM; for `Cc1ccc(C(=O)Nc2cc(C(F)(F)F)ccn2)cc1C#Cc1cnc2c(Nc3ccc(S(N)(=O)=O)cc3)cccn12`, under 1000 nM; for `CN1CCN(Cc2ccc(NC(=O)c3cccc(C#Cc4cnc5cnccn45)c3)cc2C(F)(F)F)CC1`, under 1000 nM.

For the molecule `Cc1ccc(C(=O)Nc2cc(-n3cnc(C#N)c3)cc(C(F)(F)F)c2)cc1C#Cc1cnc2cnccn12`, the GI50 is under 1000 nM. With `Cc1ccc(C(=O)Nc2cc(-n3ccnc3)cc(C(F)(F)F)c2)cc1C#Cc1cnc2c(Nc3cccc(C(N)=O)c3)cccn12` the figure was under 1000 nM. With `Cc1ccc(C(=O)Nc2cc(C(F)(F)F)ccn2)cc1C#Cc1cnc2c(Nc3ccc(S(C)(=O)=O)cc3)cccn12` the figure was under 1000 nM; with `Cc1ccc(C(=O)Nc2cc(-n3cnc(CCN4CCCC4)c3)cc(C(F)(F)F)c2)cc1C#Cc1cnc2ccccn12`, under 1000 nM; with `CC(C)N1CCN(Cc2ccc(NC(=O)c3cncc(C#Cc4cnc5cnccn45)c3)cc2C(F)(F)F)CC1`, under 1000 nM. With `Cc1ccc(C(=O)Nc2cc(-n3ccnc3CN(C)C)cc(C(F)(F)F)c2)cc1C#Cc1cnc2cnccn12` the figure was under 1000 nM; with `Cc1ccc(C(=O)Nc2ccc(CN3CCC(N(C)C)CC3)c(C(F)(F)F)c2)cc1C#Cc1cnc2cnccn12`, under 1000 nM. Regarding `Cc1ccc(C(=O)Nc2cc(-n3ccnc3)cc(C(F)(F)F)c2)cc1C#Cc1cnc2cnccn12`, the GI50 is under 1000 nM. With `CC(C)N1CCN(Cc2ccc(NC(=O)c3cccc(C#Cc4cnc5cnccn45)c3)cc2C(F)(F)F)CC1` the figure was under 1000 nM; with `Cc1ccc(C(=O)Nc2cc(CN3CCCC3)cc(C(F)(F)F)c2)cc1C#Cc1cnc2cnccn12`, under 1000 nM. For `Cc1cn(-c2cc(NC(=O)c3ccc(C)c(C#Cc4cnc5ccccn45)c3)cc(C(F)(F)F)c2)cn1` the value was under 1000 nM; for `Cc1ccc(C(=O)Nc2ccc(CN3CCN(C)CC3)c(C(F)(F)F)c2)cc1C#Cc1cnn2cccnc12`, under 1000 nM; for `CN1CCN(Cc2ccc(NC(=O)c3ccc(C#Cc4cnc5ccccn45)o3)cc2C(F)(F)F)CC1`, under 1000 nM. `Cc1ccc(C(=O)Nc2ccc(CN3CCNC(=O)C3)c(C(F)(F)F)c2)cc1C#Cc1cnc2ccccn12`: the GI50 is under 1000 nM. For `Cc1ccc(C(=O)Nc2cc(-n3cnc(C#N)c3)cc(C(F)(F)F)c2)cc1C#Cc1cnc2ccccn12` the value was under 1000 nM; for `Cc1ccc(C(=O)Nc2cc(-n3cnc(CN4CCCC4)c3)cc(C(F)(F)F)c2)cc1C#Cc1cnc2cnccn12`, under 1000 nM. With `Cc1ccc(C(=O)Nc2ccc(CN3CCC(N(C)C)CC3)c(C(F)(F)F)c2)cc1C#Cc1cnc2ccccn12` the figure was under 1000 nM; with `CN1CCN(Cc2ccc(C(=O)Nc3cccc(C#Cc4cnc5cnccn45)c3)cc2C(F)(F)F)CC1`, under 1000 nM. With `Cc1ccc(C(=O)Nc2cc(C(C)(C)C)on2)cc1C#Cn1cnc2c(NC3CC3)ncnc21` the figure was under 1000 nM; with `Cc1ccc(C(=O)Nc2cc(C(F)(F)F)ccn2)cc1C#Cc1cnn2cccnc12`, under 1000 nM; with `Cc1ccc(C(=O)Nc2ccc(CN3CCOCC3)c(C(F)(F)F)c2)cc1C#Cc1cnc2cnccn12`, under 1000 nM. With `Cc1ccc(C(=O)Nc2cc(C(F)(F)F)ccn2)cc1C#Cc1cnc2c(N)cccn12`, the GI50 was under 1000 nM. For `Cc1ccc(C(=O)Nc2cc(CN3CCCC3)cc(C(F)(F)F)c2)cc1C#Cc1cnc2ccccn12` the value was under 1000 nM; for `Cc1ccc(C(=O)Nc2cc(CN3CCOCC3)cc(C(F)(F)F)c2)cc1C#Cc1cnc2cnccn12`, under 1000 nM; for `Cc1ccc(C(=O)Nc2ccc(CN3CCCC3)c(C(F)(F)F)c2)cc1C#Cc1cnc2cnccn12`, under 1000 nM. With `Cc1ccc(C(=O)Nc2ccc(Cn3ccnc3)c(C(F)(F)F)c2)cc1C#Cc1cnc2cnccn12` the figure was under 1000 nM; with `Cc1ccc(C(=O)Nc2cc(C(F)(F)F)ccn2)cc1C#Cc1cnn2c(N)ncnc12`, under 1000 nM; with `Cc1ccc(C(=O)Nc2ccc(Cn3ccnc3)c(C(F)(F)F)c2)cc1C#Cc1cnc2ccccn12`, under 1000 nM.

Take `Cc1ccc(C(=O)Nc2cc(CN3CCOCC3)cc(C(F)(F)F)c2)cc1C#Cc1cnc2ccccn12`: the GI50 is under 1000 nM. For `CC(=O)Nc1cccn2c(C#Cc3cc(C(=O)Nc4cccc(C(F)(F)F)c4)ccc3C)cnc12` the value was under 1000 nM; for `Cc1ccc(C(=O)Nc2cc(-n3cnc(CCN4CCCC4)c3)cc(C(F)(F)F)c2)cc1C#Cc1cnc2cnccn12`, under 1000 nM; for `CC(=O)Nc1ncnc2c(C#Cc3cc(C(=O)Nc4cc(C(F)(F)F)ccn4)ccc3C)cnn12`, under 1000 nM.

With `Cc1ccc(C(=O)Nc2cc(C(F)(F)F)ccn2)cc1C#Cc1cnc2c(NC(=O)C3CCC3)cccn12`, the GI50 was under 1000 nM. With `CC(C)(C)c1cc(NC(=O)c2cccc(C#Cc3cnc4ccccn34)c2)no1` the figure was under 1000 nM; with `Cc1ccc(C(=O)Nc2ccc(CN3CC[C@@H](N(C)C)C3)c(C(F)(F)F)c2)cc1C#Cc1cnc2cccnn12` (racemic), under 1000 nM; with `Cc1ccc(C(=O)Nc2ccc(CN3CC[C@@H](O)C3)c(C(F)(F)F)c2)cc1C#Cc1cnc2ccccn12` (racemic), under 1000 nM. For `Cc1ccc(C(=O)Nc2ccc(CN3CC[C@@H](N(C)C)C3)c(C(F)(F)F)c2)cc1C#Cc1cnc2cnccn12` (stereo in doubt) the value was under 1000 nM; for `Cc1ccc(C(=O)Nc2ccc(CN3CC[C@H](N(C)C)C3)c(C(F)(F)F)c2)cc1C#Cc1cnc2cnccn12` (stereo in doubt), under 1000 nM.
